Assay results taken from ChEMBL document CHEMBL1201862, “PubChem BioAssay data set” (2004).
Calls of active or inactive are those of the source.

Columns and labels:
P388/ADR = test: cells; format: functional; conditions: Mus musculus
SN12K1 = test: cells; format: functional; conditions: Homo sapiens
P388 = test: cells; format: functional; conditions: Mus musculus
Cytochrome P450 3A4 = Cytochrome P450 3A4 (Homo sapiens, UniProt P08684); conditions: Potency;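 note: confirmatory qHTS run detecting inhibitors and substrates of CYP3A4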
Cytochrome P450 2C9 = Cytochrome P450 2C9 (Homo sapiens, UniProt P11712)
[1] = target: T1, Ubiquitin-conjugating enzyme E2 N (Homo sapiens, UniProt P61088); format: functional;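 note: Dose-response confirmation in a TR-FRET assay detecting UBC13-driven polyubiquitin chain formation, inhibition measured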
T1 sequence (P61088 whole entry): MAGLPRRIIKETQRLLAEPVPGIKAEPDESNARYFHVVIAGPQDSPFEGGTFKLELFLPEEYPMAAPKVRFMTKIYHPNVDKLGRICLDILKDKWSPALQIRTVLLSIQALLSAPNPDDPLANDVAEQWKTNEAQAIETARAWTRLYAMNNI

[2] = non-specific 3'UTR reporter inhibition in Clone20-Shn3RL – cell-based, Renilla luciferase, cherry-picked, counter-screen for Shn3 inhibitor project, dose response (AID 624133); format: functional
[3] = loss of viability in HepG2 cells – cell-based, CellTiter-Glo, cherry-picked, cytotoxicity control for Shn3 inhibitor project, dose response (AID 624134); format: functional
[4] = reduction of Shn3 3'UTR-driven luciferase in osteoblasts – cell-based, Clone20 osteoblasts, firefly luciferase, cherry-picked, dose response (AID 624132); format: functional;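 note: firefly luciferase luminescence from reporter carrying the Shn3 3'UTR in osteoblasts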
cells [5] = format: functional
[6] = target: T2, Endoribonuclease toxin MazF (Escherichia coli K-12, UniProt P0AE70); test: activation of MazEF endoribonuclease cleavage – biochemical, fluorescence, single-stranded RNA substrate, uHTS hits, dose response (AID 588481); format: functional
T2 sequence (P0AE70 whole entry): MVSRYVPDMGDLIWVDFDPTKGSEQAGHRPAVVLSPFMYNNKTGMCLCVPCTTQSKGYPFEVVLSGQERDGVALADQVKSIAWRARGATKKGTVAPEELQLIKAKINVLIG

[7] = target: T2, Endoribonuclease toxin MazF; test: substrate-only fluorescence increase artefacts – biochemical, single-stranded RNase substrate, counter-screen for MazEF activator project, dose response (AID 588502); format: functional
[8] = NIH-3T3 fibroblast cytotoxicity, dose response, cytotoxicity control, cell-based, fluorescence, Alamar Blue, secondary assay (AID 2327); format: functional;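 note: NIH-3T3 mouse fibroblasts cultured with fluconazole at 8 µg/mL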
[9] = fluconazole-exposed Candida albicans growth modulators – fluorescence, retest, confirmation (AID 2467); format: functional, cell-based
Cytochrome P450 2C19 = Cytochrome P450 2C19 (Homo sapiens, UniProt P33261); test: Cytochrome panel assay with activity outcomes. Panel member name: p450-cyp2c19 Compounds with AC50 equal or less than 10 uM are considered active; format: functional; conditions: read-out: AC50
[10] = target: T3, Rac GTPase-activating protein 1 (Homo sapiens, UniProt Q9H0H5); test: blockers of MgcRacGAP-driven Rac1 GTP hydrolysis – biochemical, ADP Hunter fluorescence, primary and confirmatory, confirmation (AID 624330); format: functional
T3 sequence (Q9H0H5 whole entry): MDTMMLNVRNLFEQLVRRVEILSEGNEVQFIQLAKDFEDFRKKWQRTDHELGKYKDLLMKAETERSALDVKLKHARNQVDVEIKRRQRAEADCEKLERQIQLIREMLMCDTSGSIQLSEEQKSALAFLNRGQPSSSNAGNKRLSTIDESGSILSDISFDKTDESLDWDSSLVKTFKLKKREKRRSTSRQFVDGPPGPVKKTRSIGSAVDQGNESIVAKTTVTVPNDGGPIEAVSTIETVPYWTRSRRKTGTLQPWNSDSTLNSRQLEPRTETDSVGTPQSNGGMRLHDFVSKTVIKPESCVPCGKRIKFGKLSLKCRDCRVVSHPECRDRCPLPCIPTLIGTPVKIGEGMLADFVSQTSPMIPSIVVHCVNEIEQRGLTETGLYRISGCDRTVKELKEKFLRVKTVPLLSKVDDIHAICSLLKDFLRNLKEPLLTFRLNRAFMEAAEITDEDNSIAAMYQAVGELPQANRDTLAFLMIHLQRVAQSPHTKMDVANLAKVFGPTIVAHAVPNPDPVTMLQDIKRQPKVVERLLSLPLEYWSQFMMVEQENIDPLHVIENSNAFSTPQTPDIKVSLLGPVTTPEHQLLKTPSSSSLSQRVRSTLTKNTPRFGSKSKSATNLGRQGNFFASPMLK

[11] = target: T4, Calpain-2 catalytic subunit (Sus scrofa, UniProt P43367); test: m-calpain protease blockers, concentration series – biochemical, fluorogenic peptide substrate, dose response (AID 1420); format: functional
T4 sequence (P43367 whole entry): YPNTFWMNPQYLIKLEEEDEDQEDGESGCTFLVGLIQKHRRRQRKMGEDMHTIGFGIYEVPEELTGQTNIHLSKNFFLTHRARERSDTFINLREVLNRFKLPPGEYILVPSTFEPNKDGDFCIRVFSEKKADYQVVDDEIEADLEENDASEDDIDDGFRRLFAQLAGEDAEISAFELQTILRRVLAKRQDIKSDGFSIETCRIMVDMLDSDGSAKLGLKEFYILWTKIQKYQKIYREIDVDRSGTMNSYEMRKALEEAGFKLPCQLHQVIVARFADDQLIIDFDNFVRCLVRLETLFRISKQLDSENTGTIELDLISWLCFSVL

[12] = THP-1 cell cytotoxicity, dose response, cytotoxicity control for non-replicating M. tuberculosis project (AID 489025); format: functional
[13] = viability of HCT116 lacking mutant beta-catenin – cell-based, human colon tumor, dose response (AID 1045); format: functional;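 note: HCT116 colon tumor cells with beta catenin knocked out; cells exposed to compound for 60 hours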
[14] = viability of PTEN-deleted HCT116 cells – cell-based, HCT116 PTEN knockout, dose response (AID 1047); format: functional;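 note: HCT116 colon tumor cells with PTEN knocked out; cells exposed to compound for 60 hours before readout; potency for loss of cell viability measured by luminescence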
cells [15] = format: functional, cell-based
cells [16] = format: functional, cell-based; remark: listed apart in the source
Cytochrome P450 1A2 = target: T5, Cytochrome P450 1A2 (Homo sapiens, UniProt P05177);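 note: PubChem cytochrome P450 panel assay, CYP1A2 panel member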
T5 sequence (P05177 whole entry): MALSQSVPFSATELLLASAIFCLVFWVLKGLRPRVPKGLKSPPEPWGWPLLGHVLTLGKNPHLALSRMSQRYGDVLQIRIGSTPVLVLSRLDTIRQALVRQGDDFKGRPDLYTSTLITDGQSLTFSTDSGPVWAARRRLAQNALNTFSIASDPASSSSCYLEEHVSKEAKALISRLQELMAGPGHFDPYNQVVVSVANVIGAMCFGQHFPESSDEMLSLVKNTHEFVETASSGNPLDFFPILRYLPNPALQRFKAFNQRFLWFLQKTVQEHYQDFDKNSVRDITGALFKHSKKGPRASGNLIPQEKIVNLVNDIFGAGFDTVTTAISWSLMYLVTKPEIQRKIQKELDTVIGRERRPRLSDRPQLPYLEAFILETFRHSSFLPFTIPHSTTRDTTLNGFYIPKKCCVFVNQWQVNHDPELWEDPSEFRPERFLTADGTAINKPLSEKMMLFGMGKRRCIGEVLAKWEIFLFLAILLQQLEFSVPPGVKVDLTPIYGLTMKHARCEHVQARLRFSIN

Sequence of Cytochrome P450 3A4 (P08684 whole entry): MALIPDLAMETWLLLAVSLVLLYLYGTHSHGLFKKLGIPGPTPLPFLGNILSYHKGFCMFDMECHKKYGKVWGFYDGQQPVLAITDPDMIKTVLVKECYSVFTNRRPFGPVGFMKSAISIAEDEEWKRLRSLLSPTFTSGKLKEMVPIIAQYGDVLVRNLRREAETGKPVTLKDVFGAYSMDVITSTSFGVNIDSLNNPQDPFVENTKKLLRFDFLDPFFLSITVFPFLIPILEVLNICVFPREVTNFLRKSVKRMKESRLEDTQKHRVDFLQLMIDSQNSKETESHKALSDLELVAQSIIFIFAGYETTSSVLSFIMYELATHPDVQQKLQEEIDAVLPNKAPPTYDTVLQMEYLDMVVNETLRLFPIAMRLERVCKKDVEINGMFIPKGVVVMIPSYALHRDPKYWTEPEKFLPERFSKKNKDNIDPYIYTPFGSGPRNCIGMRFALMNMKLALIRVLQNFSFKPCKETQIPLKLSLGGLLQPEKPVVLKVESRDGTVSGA
Sequence of Cytochrome P450 2C9 (P11712 whole entry): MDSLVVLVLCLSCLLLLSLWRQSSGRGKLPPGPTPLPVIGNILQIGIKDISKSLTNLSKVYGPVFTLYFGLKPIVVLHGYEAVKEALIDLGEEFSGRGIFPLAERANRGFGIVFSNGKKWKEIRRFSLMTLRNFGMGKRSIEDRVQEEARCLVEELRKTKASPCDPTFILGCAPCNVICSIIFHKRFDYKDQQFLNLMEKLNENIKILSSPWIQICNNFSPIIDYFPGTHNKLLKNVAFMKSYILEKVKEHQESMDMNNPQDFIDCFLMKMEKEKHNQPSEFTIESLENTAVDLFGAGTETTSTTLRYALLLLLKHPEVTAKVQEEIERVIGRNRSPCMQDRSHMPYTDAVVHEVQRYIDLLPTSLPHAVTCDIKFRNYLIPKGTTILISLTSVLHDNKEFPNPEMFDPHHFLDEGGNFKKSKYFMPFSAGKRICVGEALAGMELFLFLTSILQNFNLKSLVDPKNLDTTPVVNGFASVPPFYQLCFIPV
Sequence of Cytochrome P450 2C19 (P33261 whole entry): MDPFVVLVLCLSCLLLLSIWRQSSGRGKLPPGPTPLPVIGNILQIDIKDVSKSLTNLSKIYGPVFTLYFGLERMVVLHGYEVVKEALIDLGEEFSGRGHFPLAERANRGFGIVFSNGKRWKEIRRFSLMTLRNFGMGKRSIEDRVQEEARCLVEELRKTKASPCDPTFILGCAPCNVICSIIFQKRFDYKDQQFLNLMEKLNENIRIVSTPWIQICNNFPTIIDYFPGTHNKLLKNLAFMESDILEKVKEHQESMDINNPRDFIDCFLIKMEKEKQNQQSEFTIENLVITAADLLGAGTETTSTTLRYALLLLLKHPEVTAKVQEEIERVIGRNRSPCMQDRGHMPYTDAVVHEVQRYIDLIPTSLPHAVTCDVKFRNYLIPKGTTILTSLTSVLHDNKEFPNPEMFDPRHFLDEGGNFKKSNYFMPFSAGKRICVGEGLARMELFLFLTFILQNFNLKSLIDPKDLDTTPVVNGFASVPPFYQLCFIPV

COc1cc2cc3c4cc(OC)c(OC)cc4cc[n+]3cc2cc1OC
GI50 (P388/ADR): 12.6 µM (inactive) | GI50 (SN12K1): > 61.9 µM (inactive) | GI50 (P388): 0.881 µM (active)

COC(=O)CCCCCN1C(=O)NC(c2ccccc2)C(C(=O)OCc2ccccc2)=C1C (stereo not given)
AC50 (Cytochrome P450 3A4): 10 µM (inconclusive)

CCCCN1CCC(n2c(=O)[nH]c3ccccc32)CC1
AC50 (Cytochrome P450 2C9): inconclusive

Nc1c(S(=O)(=O)O)cc2cc(S(=O)(=O)O)ccc2c1/N=N/c1ccc(-c2ccc(/N=N/c3c(N)c(S(=O)(=O)O)cc4cc(S(=O)(=O)O)ccc34)c(S(=O)(=O)O)c2)cc1
GI50 (P388/ADR): > 100 µM (inactive) | GI50 (SN12K1): > 100 µM (inactive) | GI50 (P388): > 79.6 µM (inactive)

O=C(Nc1cccc(F)c1)c1cc(S(=O)(=O)NCCC2=CCCCC2)ccc1F
IC50 [1]: > 20 µM (inactive) | AC50 [2]: 13.9 µM (active) | AC50 [3]: 39.8 µM (active) | AC50 [4]: 4.16 µM (active)

CN(Cc1cnc2nc(N)nc(N)c2n1)c1ccc(C(=O)NC(CCC(=O)O)C(=O)O)c2ccccc12 (stereo not given)
GI50 (P388/ADR): < 0.01 µM (active) | GI50 (SN12K1): 0.01 µM (active) | GI50 (P388): < 0.01 µM (active)

N#CCCn1c(=O)c(-c2ccc(Cl)cc2)nc2cnc(N3CCOCC3)nc21
AC50 (Cytochrome P450 2C9): inconclusive

CCCN1C(=O)S/C(=C\c2ccc(N3CCOCC3)o2)C1=O
AC50 [2]: 25.8 µM (active) | AC50 [3]: > 70 µM (inactive) | AC50 [4]: 6.37 µM (active) | IC50 (cells [5]): 21.9 µM (active)

CCC(=O)c1cn(CC(=O)Nc2ccccc2Cl)c2ccccc12
EC50 [6]: > 99 µM (inactive) | EC50 [7]: > 99 µM (inactive) | AC50 [2]: 6.05 µM (active) | AC50 [4]: < 0.26 µM (active)

C#CCN1C(=O)S/C(=C\c2cc3c(cc2OC)OCO3)C1=O
EC50 [6]: 12.5 µM (active) | EC50 [7]: 17.1 µM (active)

COc1ccc(C(=O)N(CN2CCCC2=O)c2ccc(C)cc2)cc1
EC50 [8]: 66 µM (active) | EC50 [9]: > 38 µM (not active)

CCC1=C2CC[C@H]3C(=O)N(CC(=O)OC)C(=O)[C@H]3[C@H]2[C@@]2(C)/C(=N/CC(=O)OC)OC(=O)N2C1=O
AC50 (Cytochrome P450 3A4): 25.1 µM (inconclusive)

O=c1oc(/C=C/c2ccc([N+](=O)[O-])s2)nc2ccccc12
EC50 [6]: > 99 µM (inactive) | EC50 [7]: > 99 µM (inactive) | IC50 (cells [5]): 10.7 µM (active)

COc1cccc2c1C(=O)c1c(O)c3c(c(O)c1C2=O)CC(O)(C(=O)CO)CC3OC1CC(N)C(I)C(C)O1 (stereo not given)
GI50 (P388/ADR): 0.547 µM (active) | GI50 (P388): 0.0612 µM (active)

CCN(CC)CCCCn1c(-c2ccccc2)nc2c(N3CCOCC3)nc(C)nc21
AC50 (Cytochrome P450 3A4): 7.94 µM (inconclusive)

C[C@H](NC(=O)/C(C#N)=C/c1ccc(O)c(O)c1)c1ccccc1
AC50 (Cytochrome P450 2C19): 31.6 µM (inconclusive) | AC50 (Cytochrome P450 2C9): inconclusive

Cn1c(=O)cc(N)n(Cc2ccccc2)c1=O
AC50 (Cytochrome P450 3A4): 39.8 µM (inconclusive)

C/C(=N\NC(=O)CSCc1ccccc1Cl)c1cc(O)ccc1O
EC50 [8]: > 160 µM (inactive) | EC50 [9]: > 38 µM (not active) | IC50 [10]: 24.3 µM (active)

CC(=O)c1cc(C#N)c(N2CCCC2)nc1C
EC50 [8]: > 160 µM (inactive) | EC50 [9]: > 38 µM (not active)

CCC(=O)c1ccc(OCc2ccc(C(=O)c3ccccc3)cc2)cc1
AC50 [2]: 5.86 µM (active) | AC50 [3]: 26.3 µM (active) | AC50 [4]: 3.29 µM (active)

CC(C)Cn1c(N)c(C(=O)COC(=O)c2cnc(Cl)c(Cl)c2)c(=O)n(C)c1=O
IC50 [11]: 15.3 µM (not active) | CC50 [12]: 25.7 µM (active) | IC50 (cells [5]): 13.2 µM (active)

O=C(CSc1nc(-c2ccco2)cc(C(F)(F)F)n1)Nc1ccc(C(=O)N2CCCCC2)cc1
EC50 [13]: 28.8 µM (active) | AC50 [2]: 0.774 µM (active) | AC50 [3]: 51 µM (active) | AC50 [4]: 2.87 µM (active) | EC50 [14]: 62.7 µM (active)

COc1ccccc1[C@@H]1C(c2cccc(C)c2)=NN(c2ccccc2)[C@H]1C(=O)N1CCOC1=O
IC50 [1]: > 20 µM (inactive)

O=C1c2cccc3cccc(c23)C(=O)N1CCc1ccccc1
IC50 [1]: > 20 µM (inactive)

Cn1c(=O)c2c(ncn2Cc2ccc(Cl)cc2)n(C)c1=O
IC50 [1]: > 20 µM (inactive)

CCCCN(C(=O)c1c(C)[nH]c(C(=O)OCC)c1C)c1ccccc1
EC50 (cells [15]): > 350 µM (not active) | EC50 (cells [16]): > 350 µM (not active)

CC(=O)Nc1ccc(Nc2nc(C)c([N+](=O)[O-])c(Nc3ccc(NC(C)=O)cc3)n2)cc1
EC50 (cells [15]): > 350 µM (not active) | EC50 (cells [16]): > 350 µM (not active)

CCN1C(=O)c2cccc3c(NC(=O)c4ccc(S(=O)(=O)N(C)C)cc4)ccc1c23
IC50 [1]: > 20 µM (inactive)

COc1ccc(CN2C(=O)c3cccc4cccc2c34)cc1F
IC50 [1]: > 20 µM (inactive)

COc1cccc(N)c1
AC50 (Cytochrome P450 3A4): 31.6 µM (inconclusive)

Cc1ccc(C(=O)O/N=C/c2c(Cl)n(C)c3ccccc23)cc1
AC50 (Cytochrome P450 2C9): inconclusive | AC50 (Cytochrome P450 1A2): 1.12 µM (inconclusive)

O=C(O)c1cccc(CSc2nc(-c3ccccc3)cc(C(F)(F)F)n2)c1
EC50 [8]: > 150 µM (inactive) | EC50 [9]: 5.9 µM (active)

Cc1nn(C)cc1S(=O)(=O)NCc1ccc2c(c1)OCO2
EC50 (cells [15]): > 350 µM (not active) | EC50 (cells [16]): > 350 µM (not active)
